PubChem BioAssay AID270 (DTP/NCI, 2004)
Several values for one entry are separate records, joined by “and”; a condition that tells them apart may be missing. Equal values may be shown once. Inconclusive results are not listed.

Test system: BDF1 mice, s.c. Lewis lung carcinoma, T/C %
Test: NCI In Vivo Anticancer Drug Screen. Data for tumor model Lewis Lung Carcinoma (subcutaneous) in B6D2F1 (BDF1) mice
Outline: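 Antitumor effect in vivo is scored from survival or tumor burden, reported as treated relative to vehicle controls.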

SMILES: CC1CCC(NC(=O)N(CCCl)N=O)CC1 (configuration not stated)
- T/C (endpoint: mean survival time, dose: 8.0 mg/kg/injection, schedule: Q08DX002 (ip), vehicle: saline + alcohol, higher = longer survival): 97 % of control
- T/C (endpoint: mean survival time, dose: 16.0 mg/kg/injection, schedule: Q08DX002 (ip), vehicle: saline + alcohol, higher = longer survival): 105 % of control
- T/C (endpoint: mean survival time, dose: 24.0 mg/kg/injection, schedule: Q08DX002 (ip), vehicle: saline + alcohol, higher = longer survival): 123 % of control
- T/C (endpoint: median survival time, dose: 0.5 mg/kg/injection, schedule: Q01DX001 (ip), vehicle: Klucel (hydroxypropylcellulose) (HPC), higher = longer survival): 107 % of control
- T/C (endpoint: median survival time, dose: 1.0 mg/kg/injection, schedule: Q01DX001 (ip), vehicle: Klucel (hydroxypropylcellulose) (HPC), higher = longer survival): 86 % of control
- T/C (endpoint: median survival time, dose: 1.0 mg/kg/injection, schedule: Q01DX005 (ip), vehicle: saline + alcohol, higher = longer survival): 90 % of control and 107 % of control
- T/C (endpoint: median survival time, dose: 1.0 mg/kg/injection, schedule: Q02DX009 (ip), vehicle: saline + alcohol, higher = longer survival): 106 % of control and 124 % of control
- T/C (endpoint: median survival time, dose: 2.0 mg/kg/injection, schedule: Q01DX005 (ip), vehicle: saline + alcohol, higher = longer survival): 113 % of control and 114 % of control
- T/C (endpoint: median survival time, dose: 2.0 mg/kg/injection, schedule: Q01DX009 (ip), vehicle: Klucel (hydroxypropylcellulose) (HPC), higher = longer survival): 90 % of control and 105 % of control and 120 % of control
- T/C (endpoint: median survival time, dose: 2.0 mg/kg/injection, schedule: Q01DX009 (ip), vehicle: saline with Tween-80, higher = longer survival): 91 % of control and 114 % of control
- T/C (endpoint: median survival time, dose: 2.0 mg/kg/injection, schedule: Q02DX009 (ip), vehicle: saline + alcohol, higher = longer survival): 115 % of control
- T/C (endpoint: median survival time, dose: 4.0 mg/kg/injection, schedule: Q01DX001 (ip), vehicle: Klucel (hydroxypropylcellulose) (HPC), higher = longer survival): 86 % of control
- T/C (endpoint: median survival time, dose: 4.0 mg/kg/injection, schedule: Q01DX005 (ip), vehicle: saline + alcohol, higher = longer survival): 93 % of control and 105 % of control
- T/C (endpoint: median survival time, dose: 4.0 mg/kg/injection, schedule: Q01DX009 (ip), vehicle: Klucel (hydroxypropylcellulose) (HPC), higher = longer survival): 92 % of control and 97 % of control
- T/C (endpoint: median survival time, dose: 4.0 mg/kg/injection, schedule: Q01DX009 (ip), vehicle: saline with Tween-80, higher = longer survival): 98 % of control
- T/C (endpoint: median survival time, dose: 4.0 mg/kg/injection, schedule: Q02DX009 (ip), vehicle: saline + alcohol, higher = longer survival): 90 % of control and 115 % of control
- T/C (endpoint: median survival time, dose: 6.7 mg/kg/injection, schedule: Q01DX005 (ip), vehicle: saline with Tween-80, higher = longer survival): 105 % of control and 113 % of control
- T/C (endpoint: median survival time, dose: 7.0 mg/kg/injection, schedule: Q01DX001 (ip), vehicle: saline with Tween-80, higher = longer survival): 104 % of control and 121 % of control
- T/C (endpoint: median survival time, dose: 7.5 mg/kg/injection, schedule: Q01DX001 (ip), vehicle: Klucel (hydroxypropylcellulose) (HPC), higher = longer survival): 86 % of control
- T/C (endpoint: median survival time, dose: 7.5 mg/kg/injection, schedule: Q01DX001 (ip), vehicle: saline with Tween-80, higher = longer survival): 112 % of control
- T/C (endpoint: median survival time, dose: 8.0 mg/kg/injection, schedule: Q01DX001 (ip), vehicle: Klucel (hydroxypropylcellulose) (HPC), higher = longer survival): 96 % of control
- T/C (endpoint: median survival time, dose: 8.0 mg/kg/injection, schedule: Q01DX001 (ip), vehicle: saline + alcohol, higher = longer survival): 100 % of control and 107 % of control
- T/C (endpoint: median survival time, dose: 8.0 mg/kg/injection, schedule: Q01DX005 (ip), vehicle: saline + alcohol, higher = longer survival): 118 % of control and 120 % of control
- T/C (endpoint: median survival time, dose: 8.0 mg/kg/injection, schedule: Q02DX009 (ip), vehicle: saline + alcohol, higher = longer survival): 118 % of control
- T/C (endpoint: median survival time, dose: 8.0 mg/kg/injection, schedule: Q08DX002 (ip), vehicle: saline + alcohol, higher = longer survival): 95 % of control
- T/C (endpoint: median survival time, dose: 9.0 mg/kg/injection, schedule: Q01DX001 (ip), vehicle: Klucel (hydroxypropylcellulose) (HPC), higher = longer survival): 94 % of control
- T/C (endpoint: median survival time, dose: 10.0 mg/kg/injection, schedule: Q01DX001 (ip), vehicle: Klucel (hydroxypropylcellulose) (HPC), higher = longer survival): 85 % of control and 95 % of control
- T/C (endpoint: median survival time, dose: 10.0 mg/kg/injection, schedule: Q01DX005 (ip), vehicle: saline with Tween-80, higher = longer survival): 157 % of control
- T/C (endpoint: median survival time, dose: 10.7 mg/kg/injection, schedule: Q01DX001 (ip), vehicle: saline with Tween-80, higher = longer survival): 111 % of control
- T/C (endpoint: median survival time, dose: 11.0 mg/kg/injection, schedule: Q01DX001 (ip), vehicle: saline with Tween-80, higher = longer survival): 94 % of control and 113 % of control
- T/C (endpoint: median survival time, dose: 12.0 mg/kg/injection, schedule: Q01DX001 (ip), vehicle: gum acacia, higher = longer survival): 158 % of control
- T/C (endpoint: median survival time, dose: 13.0 mg/kg/injection, schedule: Q04DX004 (ip), vehicle: saline with Tween-80, higher = longer survival): 115 % of control
- T/C (endpoint: median survival time, dose: 15.0 mg/kg/injection, schedule: Q01DX001 (ip), vehicle: Klucel (hydroxypropylcellulose) (HPC), higher = longer survival): 112 % of control
- T/C (endpoint: median survival time, dose: 16.0 mg/kg/injection, schedule: Q01DX001 (ip), vehicle: gum acacia, higher = longer survival): 112 % of control
- T/C (endpoint: median survival time, dose: 16.0 mg/kg/injection, schedule: Q01DX001 (ip), vehicle: saline + alcohol, higher = longer survival): 109 % of control
- T/C (endpoint: median survival time, dose: 16.0 mg/kg/injection, schedule: Q01DX001 (ip), vehicle: saline with Tween-80, higher = longer survival): 95 % of control and 118 % of control
- T/C (endpoint: median survival time, dose: 16.0 mg/kg/injection, schedule: Q05DX002 (ip), vehicle: gum acacia, higher = longer survival): 156 % of control
- T/C (endpoint: median survival time, dose: 16.0 mg/kg/injection, schedule: Q06DX002 (ip), vehicle: gum acacia, higher = longer survival): 121 % of control
- T/C (endpoint: median survival time, dose: 16.0 mg/kg/injection, schedule: Q07DX002 (ip), vehicle: saline with Tween-80, higher = longer survival): 83 % of control
- T/C (endpoint: median survival time, dose: 16.0 mg/kg/injection, schedule: Q08DX002 (ip), vehicle: saline + alcohol, higher = longer survival): 105 % of control
- T/C (endpoint: median survival time, dose: 16.0 mg/kg/injection, schedule: Q11DX002 (ip), vehicle: saline with Tween-80, higher = longer survival): 63 % of control
- T/C (endpoint: median survival time, dose: 16.0 mg/kg/injection, schedule: Q11DX002 (oral), vehicle: saline with Tween-80, higher = longer survival): 103 % of control
- T/C (endpoint: median survival time, dose: 18.0 mg/kg/injection, schedule: Q01DX001 (ip), vehicle: other, higher = longer survival): 118 % of control
- T/C (endpoint: median survival time, dose: 20.0 mg/kg/injection, schedule: Q01DX001 (ip), vehicle: Klucel (hydroxypropylcellulose) (HPC), higher = longer survival): 115 % of control
- T/C (endpoint: median survival time, dose: 22.0 mg/kg/injection, schedule: Q01DX005 (ip), vehicle: saline with Tween-80, higher = longer survival): 113 % of control
- T/C (endpoint: median survival time, dose: 24.0 mg/kg/injection, schedule: Q07DX002 (ip), vehicle: saline with Tween-80, higher = longer survival): 77 % of control
- T/C (endpoint: median survival time, dose: 24.0 mg/kg/injection, schedule: Q08DX002 (ip), vehicle: gum acacia, higher = longer survival): 165 % of control
- T/C (endpoint: median survival time, dose: 24.0 mg/kg/injection, schedule: Q11DX002 (ip), vehicle: saline with Tween-80, higher = longer survival): 110 % of control
- T/C (endpoint: median survival time, dose: 24.0 mg/kg/injection, schedule: Q11DX002 (oral), vehicle: saline with Tween-80, higher = longer survival): 103 % of control
- T/C (endpoint: median survival time, dose: 25.0 mg/kg/injection, schedule: Q04DX004 (ip), vehicle: saline with Tween-80, higher = longer survival): 111 % of control
- T/C (endpoint: median survival time, dose: 30.0 mg/kg/injection, schedule: Q01DX001 (ip), vehicle: Klucel (hydroxypropylcellulose) (HPC), higher = longer survival): 150 % of control
- T/C (endpoint: median survival time, dose: 30.0 mg/kg/injection, schedule: Q01DX001 (ip), vehicle: saline with Tween-80, higher = longer survival): 160 % of control
- T/C (endpoint: median survival time, dose: 32.0 mg/kg/injection, schedule: Q01DX001 (ip), vehicle: saline + alcohol, higher = longer survival): 86 % of control and 88 % of control
- T/C (endpoint: median survival time, dose: 36.0 mg/kg/injection, schedule: Q10DX002 (ip), vehicle: gum acacia, higher = longer survival): 108 % of control
- T/C (endpoint: median survival time, dose: 36.0 mg/kg/injection, schedule: Q12DX002 (ip), vehicle: gum acacia, higher = longer survival): 93 % of control
- T/C (endpoint: median survival time, dose: 60.0 mg/kg/injection, schedule: Q01DX001 (ip), vehicle: Klucel (hydroxypropylcellulose) (HPC), higher = longer survival): 90 % of control
- T/C (endpoint: median survival time, dose: 60.0 mg/kg/injection, schedule: Q01DX001 (ip), vehicle: saline with Tween-80, higher = longer survival): 112 % of control
- T/C (endpoint: median survival time, dose: 64.0 mg/kg/injection, schedule: Q01DX001 (ip), vehicle: saline + alcohol, higher = longer survival): 57 % of control
- T/C (endpoint: median survival time, dose: 128.0 mg/kg/injection, schedule: Q01DX001 (ip), vehicle: saline + alcohol, higher = longer survival): 49 % of control
- T/C (endpoint: median tumor weight (est.), dose: 2.0 mg/kg/injection, schedule: Q01DX009 (ip), vehicle: Klucel (hydroxypropylcellulose) (HPC), higher = larger tumour): 82 % of control
- T/C (endpoint: median tumor weight (est.), dose: 4.0 mg/kg/injection, schedule: Q01DX009 (ip), vehicle: Klucel (hydroxypropylcellulose) (HPC), higher = larger tumour): 51 % of control
- T/C (endpoint: median tumor weight (est.), dose: 7.0 mg/kg/injection, schedule: Q01DX001 (ip), vehicle: DMSO, higher = larger tumour): 59 % of control
- T/C (endpoint: median tumor weight (est.), dose: 7.0 mg/kg/injection, schedule: Q01DX001 (ip), vehicle: saline with Tween-80, higher = larger tumour): 90 % of control
- T/C (endpoint: median tumor weight (est.), dose: 7.0 mg/kg/injection, schedule: Q01DX001 (sc), vehicle: olive oil, sesame oil, peanut oil, higher = larger tumour): 83 % of control
- T/C (endpoint: median tumor weight (est.), dose: 7.5 mg/kg/injection, schedule: Q01DX001 (ip), vehicle: Klucel (hydroxypropylcellulose) (HPC), higher = larger tumour): 92 % of control
- T/C (endpoint: median tumor weight (est.), dose: 8.0 mg/kg/injection, schedule: Q01DX009 (ip), vehicle: Klucel (hydroxypropylcellulose) (HPC), higher = larger tumour): 3 % of control
- T/C (endpoint: median tumor weight (est.), dose: 11.0 mg/kg/injection, schedule: Q01DX001 (ip), vehicle: DMSO, higher = larger tumour): 16 % of control
- T/C (endpoint: median tumor weight (est.), dose: 11.0 mg/kg/injection, schedule: Q01DX001 (ip), vehicle: saline with Tween-80, higher = larger tumour): 56 % of control
- T/C (endpoint: median tumor weight (est.), dose: 11.0 mg/kg/injection, schedule: Q01DX001 (sc), vehicle: olive oil, sesame oil, peanut oil, higher = larger tumour): 53 % of control
- T/C (endpoint: median tumor weight (est.), dose: 12.0 mg/kg/injection, schedule: Q01DX001 (ip), vehicle: gum acacia, higher = larger tumour): 41 % of control and 50 % of control
- T/C (endpoint: median tumor weight (est.), dose: 15.0 mg/kg/injection, schedule: Q01DX001 (ip), vehicle: Klucel (hydroxypropylcellulose) (HPC), higher = larger tumour): 42 % of control
- T/C (endpoint: median tumor weight (est.), dose: 16.0 mg/kg/injection, schedule: Q01DX001 (ip), vehicle: gum acacia, higher = larger tumour): 46 % of control
- T/C (endpoint: median tumor weight (est.), dose: 16.0 mg/kg/injection, schedule: Q01DX001 (ip), vehicle: saline with Tween-80, higher = larger tumour): 71 % of control
- T/C (endpoint: median tumor weight (est.), dose: 16.0 mg/kg/injection, schedule: Q01DX001 (sc), vehicle: olive oil, sesame oil, peanut oil, higher = larger tumour): 74 % of control
- T/C (endpoint: median tumor weight (est.), dose: 24.0 mg/kg/injection, schedule: Q01DX001 (ip), vehicle: saline with Tween-80, higher = larger tumour): 31 % of control
- T/C (endpoint: median tumor weight (est.), dose: 24.0 mg/kg/injection, schedule: Q01DX001 (sc), vehicle: olive oil, sesame oil, peanut oil, higher = larger tumour): 18 % of control
- T/C (endpoint: median tumor weight (est.), dose: 30.0 mg/kg/injection, schedule: Q01DX001 (ip), vehicle: Klucel (hydroxypropylcellulose) (HPC), higher = larger tumour): 3 % of control
